This note sets out measurements from publication PMC7159882, “Polyunsaturated fatty acid analogues differentially affect cardiac NaV, CaV, and KV channels through unique mechanisms” (eLife, 2020).

For the test, the target named is T1, Kv7.1/KCNE1 (Homo sapiens, UniProt P51787).
T1 construct: cRNA encoding Kv7.1 (UniProt: P51787), KCNE1 (UniProt: P15382.1); expressed in transfected cells; host or cells: Xenopus laevis oocytes (cRNA injection, Kv7.1:KCNE1 3:1 by weight)
The test can be described thus: Two-electrode voltage clamp of Kv7.1/KCNE1 expressed in Xenopus oocytes. The format is cell-based. Further details: Fitted slope factor of conductance vs voltage relationship: unit of the concentration uncertain. As to conditions: for IKs I/I0: relative current at 0 mV. On the procedure: Molecular Biology cRNA encoding Kv7.1 (UniProt: P51787), KCNE1 (UniProt: P15382.1), Nav1.5 (UniProt: Q14524.1), Nav β1 (UniProt: […]), Nav β3 (UniProt: […]), Cav1.2 (GenBank: CAA84346), Cav β3 (Uniprot: P54286), Cav β2 (Uniprot: P54288), and Cav α2δ (Uniprot: P13806) were transcribed using the mMessage mMachine T7 kit (Ambion). 50 ng of cRNA was injected into defolliculated Xenopus laevis oocytes (Ecocyte, Austin, TX): For Kv7.1/KCNE1 channel expression, we injected a 3:1, weight:weight (Kv7.1:KCNE1) cRNA ratio. For Nav1.5 channel expression, we injected a 2:1, weight:weight (Nav1.5:β1) cRNA ratio. For Cav1.2 channel expression, we injected a 2:1:1, weight:weight (Cav1.2:β3:α2δ) cRNA ratio. The exact stoichiometry for channel macromolecular complexes, including α -subunits and auxiliary subunits is not clear for many ion channels. For example, there have been multiple reported stoichiometries for Kv7.1:KCNE1 determined in heterologous expression systems with some groups reporting flexible stoichiometry of 4 Kv7.1: 1–4 KCNE1 and others reporting a fixed stoichiometry of 4 Kv7.1: 2 KCNE1 ([Murray et al., 2016]; [Nakajo et al., 2010]). The ratios of cRNA of α- and auxiliary subunits that we injected in Xenopus laevis oocytes are such that all α-subunits are assumed to be in complex with auxiliary subunits. This allows a more homogenous population of ion channels with auxiliary subunits. One caveat to expressing ion channels as macromolecular complexes is that there are many other auxiliary subunits that could associate with the channel α -subunit that are present in cardiomyocytes and have the potential to alter PUFA-induced effects, but that are not being co-expressed in our experiments. In this work, we are co-expressing some of the auxiliary subunits that have been primarily reported to associate with their respective α -subunits in cardiomyocytes. Following cRNA injection, cells were incubated for 72–96 hr in standard ND96 solution (96 mM NaCl, 2 mM KCl, 1 mM MgCl2, 1.8 mM CaCl2, 5 mM HEPES; pH = 7.5) containing 1 mM pyruvate at 16°C prior to electrophysiological recordings.
Xenopus laevis oocytes were recorded in the two-electrode voltage clamp (TEVC) configuration. Recording pipettes were filled with 3 M KCl. The recording chamber was filled with ND96 (96 mM NaCl, 2 mM KCl, 1 mM MgCl2, 1.8 mM CaCl2, 5 mM HEPES; pH 7.5). For Cav1.2/β3/α2δ channel recordings, Xenopus oocytes were injected with 50 nl of 100 mM EGTA and incubated at 10°C for 30 min prior to electrophysiological recordings in order to sequester cytosolic calcium. In addition, Cav1.2/β3/α2δ channel recordings were done in Ca^2+-free solutions, using Ba^2+ as the charge carrier, to prevent calcium-dependent inactivation of Cav1.2/β3/α2δ channels. Calcium-dependent inactivation was not studied in this work, due to the presence of large calcium-activated chloride currents present in Xenopus laevis oocytes. PUFAs were obtained from Cayman Chemical (Ann Arbor, MI.) or synthesized in house (Linköping, Sweden) through methods previously described ([Bohannon et al., 2020]) and kept at −20 °C as 100 mM stock solutions in ethanol. […] PUFAs were perfused into the recording chamber using the Rainin Dynamax Peristaltic Pump (Model RP-1) (Rainin Instrument Co., Oakland, CA. USA).
Electrophysiological recordings were obtained using Clampex 10.3 software (Axon, pClamp, Molecular Devices). To measure Kv7.1/KCNE1 currents we apply PUFAs as the membrane potential is stepped every 30 s from −80 mV to 0 mV for 5 s before stepping to −40 mV and back to −80 mV to ensure that the PUFA effects on the current at 0 mV reached steady state. A voltage-step protocol was used to measure the current vs. voltage (I-V) relationship before PUFA application and after the PUFA effects had reached steady state for each concentration of PUFA. Cells were held at −80 mV followed by a hyperpolarizing prepulse to −140 mV. […]
(In general: Two-electrode voltage clamp is typically applied to oocytes expressing channels or transporters.)

Molecules are shown by their SMILES.

`CC/C=C\C/C=C\C/C=C\C/C=C\C/C=C\C/C=C\CCC(=O)NCC(=O)O` [DHA-glycine, docosahexaenoyl glycine]: the “Fitted slope factor of conductance vs voltage relationship” value reads like this: (0.2 μM) 16.5 ± 0.49 mV; (0.7 μM) 16.6 ± 0.45 mV; (2 μM) 16.6 ± 0.52 mV; (7 μM) 17.0 ± 0.56 mV; (20 μM) 17.9 ± 0.68 mV. For the same compound, the Gmax/Gmax0 runs as follows: (0.2 μM) 1.3 ± 0.1; (0.7 μM) 1.5 ± 0.1; (2 μM) 1.7 ± 0.2; (7 μM) 1.9 ± 0.2; (20 μM) 2.0 ± 0.2. Moreover, the “ΔV0.5 (voltage dependence of activation)” value is -2.0 ± 0.8 mV (0.2 μM); -3.0 ± 1.0 mV (0.7 μM); -5.8 ± 0.9 mV (2 μM); −10.5 ± 1.0 mV (7 μM); -16.5 ± 1.3 mV (20 μM). For the same compound, the “IKs I/I0” value came to 1.3 ± 0.1 (0.2 μM), 1.7 ± 0.2 (0.7 μM), 2.4 ± 0.5 (2 μM) and 5.0 ± 1.3 (20 μM).
On to `CCCCC/C=C\C/C=C\CCCCCCCC(=O)NCC(=O)O` [Lin-glycine], for which the “Fitted slope factor of conductance vs voltage relationship” value worked out at 18.2 ± 0.89 mV (0.2 μM); 19.0 ± 1.0 mV (0.7 μM); 19.2 ± 1.2 mV (2 μM); 20.6 ± 1.5 mV (7 μM); 22.1 ± 1.7 mV (20 μM). Besides, the Gmax/Gmax0 by setting is: (0.2 μM) 1.2 ± 0.1; (0.7 μM) 1.3 ± 0.1; (2 μM) 1.8 ± 0.2; (7 μM) 2.3 ± 0.2; (20 μM) 2.4 ± 0.2. Further, the “ΔV0.5 (voltage dependence of activation)” value runs as follows: (0.2 μM) -2.7 ± 1.5 mV; (0.7 μM) -3.3 ± 3.0 mV; (2 μM) -10.0 ± 2.8 mV; (7 μM) −23.8 ± 1.6 mV; (7 μM, listed as lin-glycine) -23.8 ± 1.6 mV; (20 μM) -26.4 ± 4.4 mV. The “IKs I/I0” value runs as follows: (0.2 μM) 1.2± 0.1; (0.7 μM) 1.4 ± 0.1; (2 μM) 2.5 ± 0.4; (7 μM) 5.1 ± 0.4 (p=0.002); (7 μM, listed as lin-glycine) 5.1 ± 0.4; (20 μM) 5.3 ± 0.5.
On to `CCCCC/C=C\C/C=C\CCCCCCCC(=O)NCCS(=O)(=O)O` [Lin-taurine, Linoleoyl taurine], for which the “Fitted slope factor of conductance vs voltage relationship” value runs as follows: (0.2 μM) 17.7 ± 0.76 mV; (0.7 μM) 17.7 ± 0.77 mV; (2 μM) 18.6 ± 1.0 mV; (7 μM) 18.1 ± 1.0 mV; (20 μM) 12.2 ± 1.8 mV. For the same compound, the Gmax/Gmax0 by setting is: (0.2 μM) 1.0 ± 0.03; (0.7 μM) 1.1 ± 0.02; (2 μM) 1.7 ± 0.4; (7 μM) 1.9 ± 0.6; (20 μM) 2.0 ± 0.6. Besides, the “ΔV0.5 (voltage dependence of activation)” value reads like this: (0.2 μM) 1.3 ± 0.7 mV; (0.7 μM) -0.3 ± 1.4 mV; (2 μM) -12.3 ± 3.1 mV; (7 μM) −39.9 ± 3.6 mV; (7 μM, listed as lin-taurine) -39.9 ± 3.6 mV; (20 μM) -73.1 ± 2.6 mV. For the same compound, the “IKs I/I0” value by setting is: (0.2 μM) 1.0 ± 0.1; (0.7 μM) 1.2 ± 0.2; (2 μM) 3.2 ± 0.9; (7 μM) 7.7 ± 2.9 (p=0.14); (7 μM, listed as lin-taurine) 7.7 ± 2.9; (20 μM) 10.4 ± 4.0.
